The text below walks through data of patent US20260159503A1, “1,2,3-TRIAZOLE LINKER-CONTAINING COMPOUNDS” (HIGH POINT UNIVERSITY, priority 2024, published 2026).

Structures are written as SMILES. Bounds are passed on as bounds.

For assay [1], the target named is T1, human D2R long isoform (Homo sapiens, UniProt P14416).
T1 construct: host or cells: CHO-K1
Kind of assay: DiscoverX PathHunter β-arrestin recruitment assay, D2R. It is filed as cell-based. To be noted: triazole; antagonist; read-out: potency, β-arrestin recruitment at the D2R. The protocol: (§1) Luminescence was measured on a Hamamatsu FDSS μCell reader.
(§2) Efficacy/antagonist % (Ant. %) values were obtained from nonlinear regression of meaned data obtained from at least three independent experiments with triplicate measures. Values are presented as means±SEM.

The target in assay [2] is T2, human D3R (Homo sapiens, UniProt P35462).
T2 construct: host or cells: CHO-K1
Kind of assay: DiscoverX PathHunter β-arrestin recruitment assay, D3R. It is filed as cell-based. The settings on record: triazole; antagonist; read-out: potency, β-arrestin recruitment at the D3R. The protocol: as §1, §2

T2 sequence (P35462 whole entry): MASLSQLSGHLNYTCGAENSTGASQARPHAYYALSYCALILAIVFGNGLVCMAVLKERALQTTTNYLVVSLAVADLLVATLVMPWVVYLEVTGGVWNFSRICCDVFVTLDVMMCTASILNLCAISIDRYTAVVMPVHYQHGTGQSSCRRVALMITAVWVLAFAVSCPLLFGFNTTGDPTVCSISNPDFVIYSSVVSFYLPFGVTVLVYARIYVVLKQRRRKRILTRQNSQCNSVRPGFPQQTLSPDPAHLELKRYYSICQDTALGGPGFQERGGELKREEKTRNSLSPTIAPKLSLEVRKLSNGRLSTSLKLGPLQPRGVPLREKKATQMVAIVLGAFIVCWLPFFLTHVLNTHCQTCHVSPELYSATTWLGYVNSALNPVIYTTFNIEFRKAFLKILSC
T1 sequence (P14416 whole entry, canonical isoform): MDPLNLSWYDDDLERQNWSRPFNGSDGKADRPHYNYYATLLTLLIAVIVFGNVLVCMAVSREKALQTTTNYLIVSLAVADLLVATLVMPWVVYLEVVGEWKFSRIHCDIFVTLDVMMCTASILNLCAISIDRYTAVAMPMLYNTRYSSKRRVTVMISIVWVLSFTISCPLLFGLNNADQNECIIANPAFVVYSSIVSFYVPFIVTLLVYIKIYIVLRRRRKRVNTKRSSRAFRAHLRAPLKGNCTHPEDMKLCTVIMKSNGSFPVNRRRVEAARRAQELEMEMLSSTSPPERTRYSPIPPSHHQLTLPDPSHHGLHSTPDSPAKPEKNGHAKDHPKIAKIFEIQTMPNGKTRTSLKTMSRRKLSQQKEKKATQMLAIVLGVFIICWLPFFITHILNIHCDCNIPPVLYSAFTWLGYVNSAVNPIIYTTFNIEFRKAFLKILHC

For the compound `Cc1cccc(-n2cc(CN3CCC(c4ccccc4)CC3)nn2)c1` [Compound 14, 4-phenyl-1-((1-(m-tolyl)-1H-1,2,3-triazol-4-yl)methyl)piperidine], the IC50 in assay [1] and in assay [2] was > 6 µM each time.
